Starred links: 1 amine or outer side, 2 acyl side, 3 side chain; linkers in the order of their positions; H or OH if unused. Positions of bridges follow the written chain, without caps; N, C: chain ends. Non-standard residues stand in square brackets, D forms with d. Residues, ends and D or L forms follow the SMILES beside them. *: point of attachment. Leu(3R-OH,Nα-propionyl) = CCC(=O)N[C@H](C(=O)*)[C@H](O)C(C)C; X1 = CC(C)[C@@H](O[*:3])[C@H](N[*:1])C(=O)[*:2]; X2 = CC(C)[C@H](O[*:3])[C@@H](N[*:1])C(=O)[*:2]; NMeaThr = CN[C@H](C(=O)O)[C@H](C)O; dPhLac = O=C(O)[C@H](O)Cc1ccccc1; NMeA = CN[C@@H](C)C(=O)O; NMeDha = C=C(NC)C(=O)O
Key:
[1] = target: T1, constitutively active Gα13 with Gβγ2 (Homo sapiens, UniProt Q14344, Q226L); experiment: Split luciferase complementation, Gα interaction with Gβγ2; type: cell-based; conditions: FIG. 1A
T1 construct: expressed in transfected cells; host or cells: HEK-293
T1 sequence (Q14344 1-377 Q226L): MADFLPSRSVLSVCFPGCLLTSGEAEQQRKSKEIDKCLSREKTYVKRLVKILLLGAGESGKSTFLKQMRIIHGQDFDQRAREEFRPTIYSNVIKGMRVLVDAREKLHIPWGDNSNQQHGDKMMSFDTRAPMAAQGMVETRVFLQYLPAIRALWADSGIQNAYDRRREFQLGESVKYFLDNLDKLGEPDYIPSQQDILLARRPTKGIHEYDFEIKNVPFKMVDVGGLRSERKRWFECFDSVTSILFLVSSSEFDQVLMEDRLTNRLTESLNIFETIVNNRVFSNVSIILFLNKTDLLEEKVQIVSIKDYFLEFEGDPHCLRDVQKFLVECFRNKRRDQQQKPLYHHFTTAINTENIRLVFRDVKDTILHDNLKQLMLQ
Source text: (§1) (FIG. 1A-1C) depicts the effect of FR on the activity state of Gα subunits as determined by interaction with Gβγ or RGS domains in split luciferase complementation assays. FIG. 1A Effect of FR on interaction of Gβγ2 with the indicated wild type (WT) or mutant constitutively active (Q/L) forms of Gα (q) or Gα13 (13). * p<0.01; ** p<0.05. FIG. 1B Potency of FR as a driver of interaction of Gβγ2 with wild type or mutant constitutively active Gαq. FIG. 1C Potency of FR as inhibitor of interaction of RGS2 with mutant constitutively active (Q/L) Gαq, or interaction of the RGS domain of LARG (LARG-RGS) with mutant constitutively active Gα13. FIG. 1D Potency of FR as inhibitor of signal transduction by constitutively active Gαq or Gα13 detected with an SRE(L) promoter-driven transcriptional reporter. Constitutively active Gαq (Q/L), constitutively active Gαq bearing the indicated FR binding site mutations, and constitutively Gα13 (Q/L) were studied.
(§2) To detect protein-protein interactions, a split luciferase complementation assays was used (23), as employed to study activation state-dependent interaction between Gα subunits and cognate binding partners (24).
(§3) Split luciferase assays were performed as described (24). The N-terminal portion of click beetle green luciferase (CBGN) was inserted into the αB-αC loop within the helical domain of wild type (WT) and constitutively active (Q/L) mutant forms of Gα and Gα13. Insertion of foreign proteins at this site preserves Gαfunction (40). The C-terminal region of click beetle green luciferase (CBGC) was fused to the N-termini of G131 (which was co-expressed with untagged Gγ2), RGS2, and the RGS domain of LARG, which interacts with Gal 3 only in the active GTP-bound state (41). HEK-293 cells transiently transfected with various combinations of tagged proteins were treated 18 h with vehicle(DMSO) or FR and luciferase assays were performed to measure reconstituted luciferase activity.

[2] = target: T2, wild type Gαq interacting with Gβγ2 (Homo sapiens, UniProt P50148); experiment: as above; type: cell-based; conditions: HEK-293 cells, 18 h, FIG. 1B, read-out: EC50, increase of split luciferase complementation
T2 construct: expressed in transfected cells; host or cells: HEK-293
Source text: as §1, §2, §3

[3] = tested on: Gαi/q; experiment: In vitro nucleotide exchange (BODIPY-GTPγS fluorescence); type: biochemical; conditions: FIG. 2B
[4] = target: T3, Gαi/q (Homo sapiens, UniProt P63096, K54R/C351G, form not given); type: cell-based; conditions: read-out: IC50, attenuation of cannabinoid type 1 receptor inhibition of forskolin-induced cAMP accumulation; via Gαi/q; Neuro2A cells, PTX-treated; FIG. 2C
T3 construct: other: via Gαi/q; the eight substituted residues copy Gαq (GNAQ) but are point changes, not a fused part of Gαq

[5] = target: T4, Gαi/q(R54K) (Homo sapiens, UniProt P63096, C351G, form not given); type: cell-based; conditions: read-out: IC50, attenuation of cannabinoid type 1 receptor inhibition of forskolin-induced cAMP accumulation; via Gαi/q(R54K); Neuro2A cells; FIG. 2C
T4 construct: […]

[6] = tested on: Gαi/q(R54K); type: cell-based; conditions: Gαi/q(R54K) vs Gαi/q
[7] = tested on: 92.1 cells; experiment: Melanocytic re-differentiation (morphology, pigmentation, immunostaining); type: cell-based, Human
Procedure: FIG. 5A Morphological changes elicited by FR. UM cell lines were treated 3 d with FR and imaged by phase contrast microscopy. FR caused UM cells driven by constitutively active Gαq (92.1 and Mel202) to lose their characteristic spindle shaped and assume a stellate shape with multiple projections. FR had no effect on BRAF-driven UM cells (OCM-1A). FIG. 5B Melanocytic differentiation of FR-treated UM cells indicated by pigmentation. UM cell lines were treated 3 d with FR. Cells were pelleted and examined macroscopically. […] Scale bar=50 μm.
Gαq-mutant 92.1 UM cells were treated with FR or vehicle, and RNA was collected 1 and 3 d after treatment for RNA-Seq analysis. FIG. 7A Unsupervised principal component analysis identified FR treatment and time in culture as the two main separable factors contributing to changes in gene expression. […] FIG. 7D FR-repressed genes identified as targets of the polycomb repressive complex 2 by Geneset enrichment analysis. FIG. 7E The Ezh1/2 inhibitor GSK503 blocks the morphological differentiation elicited by FR. 92.1 UM cells were treated 7 d with GSK503 and 3 d with FR and then imaged by phase contrast microscopy. […] 92.1 cells were treated 7 d with GSK503 and 3 d with FR and pelleted. FIG. 7G PRC2 inhibition by GSK503.
Cell fixation was carried out by adding an equal volume of 2×fixative (PBS with 4% paraformaldehyde and 0.4% glutaraldehyde) to UM cells in RPMI growth medium. After 15 min at 37° C., cells were permeabilized with 0.1% Triton X-100 in PBS for 5 min, washed with PBS, and blocked with 2% fish gelatin (Sigma-Aldrich) in PBS. Primary and secondary antibodies were diluted in 2% fish gelatin in PBS. Primary antibodies included mouse monoclonal anti-pre-melanosomal protein (One World Lab, San Diego, Calif.), rabbit polyclonal anti-tyrosinase (One World Lab), rabbit polyclonal anti-dopachrome tautomerase (One World Lab), rabbit polyclonal anti-S100 (DakoCytomation, Denmark), and mouse monoclonal anti-BrdU (Life Technologies). Secondary antibodies were Alexa-fluor conjugates (Life Technologies), and the mounting agent was ProLong Gold (Life Technologies). Cell morphology was assessed by phase contrast imaging with an inverted microscope (Olympus IX72) using a 10×objective.

[8] = tested on: Mel202 UM cells; experiment: UM cell viability, water-soluble tetrazolium salt assay; conditions: Homo sapiens, Mel202, read-out: EC50, inhibition of proliferation (viability)
Procedure: Cells were cultured at 37.0 in 5% CO2. […] Cell lines were grown in RPMI 1640 medium (Life Technologies, Carlsbad, Calif.) supplemented with 10% FBS and antibiotics. Cell viability was measured using a water-soluble tetrazolium salt, WTS-8 (Bimake, Houston, Tex.), following the manufacturer's protocol. Flow cytometry for analysis of cell proliferation and apoptosis was performed at the Siteman Cancer Center Flow Cytometry Core on a FACScan analyzer (BD Biosciences, San Diego Calif., USA) using a standard propidium iodide staining protocol as described previously (44).

T4 sequence (P63096 whole entry V50I/Y69F/V72L/K180P/V185I/T187Y/H188P/C351G, form open): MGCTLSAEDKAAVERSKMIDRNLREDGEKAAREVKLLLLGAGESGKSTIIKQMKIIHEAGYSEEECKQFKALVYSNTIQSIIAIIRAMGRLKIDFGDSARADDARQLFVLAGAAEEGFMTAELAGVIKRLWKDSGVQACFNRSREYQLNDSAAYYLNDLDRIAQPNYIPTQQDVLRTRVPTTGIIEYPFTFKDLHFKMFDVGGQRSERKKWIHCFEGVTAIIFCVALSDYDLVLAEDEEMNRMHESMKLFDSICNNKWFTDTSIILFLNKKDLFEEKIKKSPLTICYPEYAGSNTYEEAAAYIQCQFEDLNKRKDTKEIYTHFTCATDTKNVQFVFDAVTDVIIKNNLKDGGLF
T2 sequence (P50148 whole entry): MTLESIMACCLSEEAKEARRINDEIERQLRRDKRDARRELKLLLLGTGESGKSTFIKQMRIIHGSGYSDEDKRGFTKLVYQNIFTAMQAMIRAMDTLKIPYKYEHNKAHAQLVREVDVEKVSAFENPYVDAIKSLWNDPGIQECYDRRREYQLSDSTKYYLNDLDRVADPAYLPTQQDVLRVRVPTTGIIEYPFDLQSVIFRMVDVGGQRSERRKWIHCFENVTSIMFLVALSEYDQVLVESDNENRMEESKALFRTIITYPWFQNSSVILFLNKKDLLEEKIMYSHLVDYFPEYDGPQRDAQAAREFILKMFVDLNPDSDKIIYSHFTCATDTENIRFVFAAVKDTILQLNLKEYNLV
T2 sequence (P59768 2-68, further chain): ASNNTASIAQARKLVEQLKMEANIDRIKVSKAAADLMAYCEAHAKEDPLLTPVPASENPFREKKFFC
T2 sequence (P62873 whole entry, further chain): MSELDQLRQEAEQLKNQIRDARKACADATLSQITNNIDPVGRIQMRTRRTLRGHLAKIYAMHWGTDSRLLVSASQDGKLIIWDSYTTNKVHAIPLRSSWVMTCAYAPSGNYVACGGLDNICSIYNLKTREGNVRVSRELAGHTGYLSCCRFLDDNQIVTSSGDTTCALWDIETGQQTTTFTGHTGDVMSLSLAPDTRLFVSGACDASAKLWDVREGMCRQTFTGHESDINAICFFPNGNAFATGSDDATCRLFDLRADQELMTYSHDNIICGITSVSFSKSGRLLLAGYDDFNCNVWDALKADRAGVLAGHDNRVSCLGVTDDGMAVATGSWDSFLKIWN
T3 sequence (P63096 whole entry V50I/K54R/Y69F/V72L/K180P/V185I/T187Y/H188P/C351G, form open, the tested form may be a part): as the sequence (P63096 whole entry V50I/Y69F/V72L/K180P/V185I/T187Y/H188P/C351G, form open) above, with K54R counted along it

Structure (SMILES): C=C1C(=O)N[C@@H](C)C(=O)N(C)[C@@H](C)C(=O)N[C@H]([C@@H](OC(=O)[C@@H](NC(=O)CC)[C@H](O)C(C)C)C(C)C)C(=O)N(C)[C@@H]([C@H](C)OC)C(=O)O[C@H](C(C)C)[C@H](NC(C)=O)C(=O)O[C@H](Cc2ccccc2)C(=O)N1C [FR, [(1S)-1-[(3S,6R,9S,12S,18R,21S,22R)-21-acetamido-18-benzyl-3-[(1S)-1-methoxyethyl]-4,9,10,12,16-pentamethyl-15-methylidene-2,5,8,11,14,17,20-heptaoxo-22-propan-2-yl-1,19-dioxa-4,7,10,13,16-pentazacyclodocos-6-yl]-2-methylpropyl] (2S,3R)-3-hydroxy-4-methyl-2-(propanoylamino)pentanoate] (Ac-[X1][dPhLac][NMeDha]A[NMeA][X2](Leu(3R-OH,Nα-propionyl))[NMeaThr](Me); ester 1-C)
- effect on interaction with Gβγ2 [1]: lack of effect
- EC50 [2]: 3 nM
- in vitro nucleotide exchange [3]: inhibited
- IC50 [4]: 25 nM
- IC50 [5]: ~800 nM
- fold less potent than toward Gαi/q, cAMP signaling [6]: ~30 fold
- cell morphology (phase contrast) ([7]; 3 d FR, FIG. 5A): morphological changes indicative of re-differentiation
- melanocytic pigmentation ([7]; 3 d FR, FIG. 5B): strikingly increased
- expression levels of TYR, DCT and PMEL (immunofluorescence) ([7]; FIG. 5C): increased
- EC50 [8]: 6 nM

Reference: patent US20230130103A1, “TARGETED PHARMACOLOGICAL THERAPEUTICS IN UVEAL MELANOMA” (Washington University, priority 2017, published 2023)
